Experiments:
P. falciparum = experiment: Intraerythrocytic development in long term synchronized culture, parasitemia over consecutive cycles; assay type: cell-based, Plasmodium falciparum
Experimental: Synchronized cultures 12 h after invasion were subjected to different concentrations of PPMP. Parasitemias of drug-treated cultures were determined at various time points during two intraerythrocytic cycles and compared to cells grown in the absence of drug.
The effect of the single lipid analogs to inhibit parasite development in long term culture in consecutive cycles of the parasite growth were investigated. The studies were initiated with synchronized, young rings (0-12h) at 10% parasitemia. In order to ensure healthy growth of the malaria parasite in vitro, the parasitemias of the cultures are not allowed to exceed 10%. Yet under normal conditions a 3-6 fold increase in parasitemias is detected with each round of invasion: thus for each new cycle, the cultures were diluted 4-fold into fresh erythrocytes in the absence or presence of the drug. […] The lowest effective, killing concentration of PDMP over three cycles of growth is 1.0 μM.

protein synthesis = experiment: Effect on protein synthesis; assay type: cell-based
P. chabaudi = experiment: Single cycle of expansion in culture, mouse malaria; assay type: cell-based
Source text: (§1) The human malaria parasite P. falciparum can be grown in monkeys but not in rodents. However, since primates are expensive, rodents are used as a animal first screen. P. yoelii and P. chabaudi are commonly used strains of mouse malaria.

P. yoelii = experiment: as above; assay type: cell-based
Source text: as §1

[1] = system: P. falciparum schizonts and merozoites; experiment: Schizont maturation and merozoite invasion in the presence of drug; assay type: cell-based, Plasmodium falciparum; conditions: 5 μM
Experimental: (§2) Schizont-stage parasites isolated over Percoll were allowed to invade in the presence of RPMI 1640 containing 10% human serum or in the presence of RPMI 1640 containing 10% human serum and 5 μM PPMP. 1×10^8 infected erythrocytes of the appropriate stage were incubated in 1 ml of RPMI 1640 supplemented with 2mg/ml defatted BSA and 20 μM C5 -DMB-ceramide. Cells were washed and fixed as described in Example 5. Sequential micrographs were taken on a custom made laser confocal microscope at 400 nm intervals along the Z axis. Raw data were processed as described previously.
Furthermore, the released daughter merozoites enter red cells to form new rings in the continued presence of the drug. This supports the conclusion that the parasite sphingomyelin synthase is essential only to ring and trophozoite-infected red cells in the first 30 to 36 h of intraerythrocytic development.
To determine whether the parasite specific sphingomyelin synthase activity is required for the development of the TVM, ring-infected erythrocytes inhibited in the enzyme from the onset of intra- erythrocytic development were employed. […] Optical sections obtained by staining with C5 DMB-ceramide were observed. A tubular structure was seen extending from the body of the parasite apparently connected to a larger vesicle in the red cell. In rings formed in the presence of PPMP, the intraerythrocytic structures are seen as discrete domains, separated from each other in all three sections. […] Thus, specific inhibition of the parasite's sphingomyelin biosynthetic activity appears to alter the interconnected "tubovesicular morphology" of the TVM into isolated intraerythrocytic compartments or "vesicles" in ring stage parasites.

[2] = system: tubovesicular membrane reticulum (TVM) of P. falciparum-infected erythrocytes; experiment: Tubovesicular membrane (TVM) morphology, C5-DMB-ceramide labeling, confocal microscopy; assay type: cell-based; conditions: 5 μM
Experimental: Serial sections through P. falciparum-infected erythrocytes labeled with C5 -DMB-ceramide (4,4-difluoro-5,7-dimethyl-4-bora-3a,4a-diaza-5-indacene-3-pentanoyl)-sphingosine) 12 h (rings) and 36 h (trophozoites) after invasion.
as §2

[3] = PPMP 0.05 μM, time in drug 0 h, time of cycle 12 h, cycle 1
[4] = PPMP 0.05 μM, time in drug 34 h, time of cycle 46 h, cycle 1, culture fourfold diluted
[5] = PPMP 0.05 μM, time in drug 60 h, time of cycle 12 h, cycle 2
[6] = PPMP 0.05 μM, time in drug 80 h, time of cycle 32 h, cycle 2, culture fourfold diluted
[7] = PPMP 0.05 μM, time in drug 104 h, time of cycle 8 h, cycle 3
[8] = PPMP 0.1 μM, time in drug 0 h, time of cycle 12 h, cycle 1
[9] = PPMP 0.1 μM, time in drug 34 h, time of cycle 46 h, cycle 1, culture fourfold diluted
[10] = PPMP 0.1 μM, time in drug 60 h, time of cycle 12 h, cycle 2
[11] = PPMP 0.1 μM, time in drug 80 h, time of cycle 32 h, cycle 2, culture fourfold diluted
[12] = PPMP 0.1 μM, time in drug 104 h, time of cycle 8 h, cycle 3
[13] = PPMP 0.5 μM, time in drug 0 h, time of cycle 12 h, cycle 1
[14] = PPMP 0.5 μM, time in drug 34 h, time of cycle 46 h, cycle 1, culture fourfold diluted
[15] = PPMP 0.5 μM, time in drug 60 h, time of cycle 12 h, cycle 2
[16] = PPMP 0.5 μM, time in drug 80 h, time of cycle 32 h, cycle 2, culture fourfold diluted
[17] = PPMP 0.5 μM, time in drug 104 h, time of cycle 8 h, cycle 3
[18] = PPMP 1.0 μM, time in drug 0 h, time of cycle 12 h, cycle 1
[19] = PPMP 1.0 μM, time in drug 34 h, time of cycle 46 h, cycle 1, culture fourfold diluted
[20] = PPMP 1.0 μM, time in drug 60 h, time of cycle 12 h, cycle 2
[21] = PPMP 1.0 μM, time in drug 80 h, time of cycle 32 h, cycle 2, culture fourfold diluted
[22] = PPMP 1.0 μM, time in drug 104 h, time of cycle 8 h, cycle 3
[23] = PPMP 5.0 μM, time in drug 0 h, time of cycle 12 h, cycle 1
[24] = PPMP 5.0 μM, time in drug 34 h, time of cycle 46 h, cycle 1, culture fourfold diluted
[25] = PPMP 5.0 μM, time in drug 60 h, time of cycle 12 h, cycle 2
[26] = PPMP 5.0 μM, time in drug 80 h, time of cycle 32 h, cycle 2, culture fourfold diluted
[27] = PPMP 5.0 μM, time in drug 104 h, time of cycle 8 h, cycle 3

CCCCCCCCCCCCCCCC(=O)N[C@H](CN1CCOCC1)[C@H](O)c1ccccc1 (relative stereo) [PPMP, dl-threo-1-phenyl-2-palmitoylamino-3-morpholino-1-propanol]
effect on trophozoite stage parasites (P. falciparum): blocks the development of trophozoite stage parasites | effect on ring development (P. falciparum; 5 μM, first cycle): completely inhibits rings in their first cycle growth | growth inhibition with increasing concentration (P. falciparum; 0.05 to 1.0 μM PPMP): gradual increase in the observed growth inhibition | parasitemia [%], ring (P. falciparum; [3]): 10% | parasitemia [%], schizont (P. falciparum; [3]): 0% | parasitemia [%], trophozoite (P. falciparum; [3]): 0% | parasitemia [%], ring (P. falciparum; [4]): 0% | parasitemia [%], schizont (P. falciparum; [4]): 5% | parasitemia [%], trophozoite (P. falciparum; [4]): 4% | parasitemia [%], ring (P. falciparum; [5]): 5% | parasitemia [%], schizont (P. falciparum; [5]): 1% | parasitemia [%], trophozoite (P. falciparum; [5]): 0% | parasitemia [%], ring (P. falciparum; [6]): 5% | parasitemia [%], schizont (P. falciparum; [6]): 0% | parasitemia [%], trophozoite (P. falciparum; [6]): 0% | parasitemia [%], ring (P. falciparum; [7]): 1% | parasitemia [%], schizont (P. falciparum; [7]): 0% | parasitemia [%], trophozoite (P. falciparum; [7]): 0% | parasitemia [%], ring (P. falciparum; [8]): 10% | parasitemia [%], schizont (P. falciparum; [8]): 0% | parasitemia [%], trophozoite (P. falciparum; [8]): 0% | parasitemia [%], ring (P. falciparum; [9]): 0% | parasitemia [%], schizont (P. falciparum; [9]): 5% | parasitemia [%], trophozoite (P. falciparum; [9]): 4% | parasitemia [%], ring (P. falciparum; [10]): 4% | parasitemia [%], schizont (P. falciparum; [10]): 1% | parasitemia [%], trophozoite (P. falciparum; [10]): 0% | parasitemia [%], ring (P. falciparum; [11]): 4% | parasitemia [%], schizont (P. falciparum; [11]): 0% | parasitemia [%], trophozoite (P. falciparum; [11]): 0% | parasitemia [%], ring (P. falciparum; [12]): 1% | parasitemia [%], schizont (P. falciparum; [12]): 0% | parasitemia [%], trophozoite (P. falciparum; [12]): 0% | parasitemia [%], ring (P. falciparum; [13]): 10% | parasitemia [%], schizont (P. falciparum; [13]): 0% | parasitemia [%], trophozoite (P. falciparum; [13]): 0% | parasitemia [%], ring (P. falciparum; [14]): 0% | parasitemia [%], schizont (P. falciparum; [14]): 4% | parasitemia [%], trophozoite (P. falciparum; [14]): 5% | parasitemia [%], ring (P. falciparum; [15]): 4% | parasitemia [%], schizont (P. falciparum; [15]): 1% | parasitemia [%], trophozoite (P. falciparum; [15]): 0% | parasitemia [%], ring (P. falciparum; [16]): 5% | parasitemia [%], schizont (P. falciparum; [16]): 0% | parasitemia [%], trophozoite (P. falciparum; [16]): 0% | parasitemia [%], ring (P. falciparum; [17]): 1% | parasitemia [%], schizont (P. falciparum; [17]): 0% | parasitemia [%], trophozoite (P. falciparum; [17]): 0% | parasitemia [%], ring (P. falciparum; [18]): 10% | parasitemia [%], schizont (P. falciparum; [18]): 0% | parasitemia [%], trophozoite (P. falciparum; [18]): 0% | parasitemia [%], ring (P. falciparum; [19]): 0% | parasitemia [%], schizont (P. falciparum; [19]): 4% | parasitemia [%], trophozoite (P. falciparum; [19]): 4% | parasitemia [%], ring (P. falciparum; [20]): 3% | parasitemia [%], schizont (P. falciparum; [20]): 2% | parasitemia [%], trophozoite (P. falciparum; [20]): 0% | parasitemia [%], ring (P. falciparum; [21]): 3% | parasitemia [%], schizont (P. falciparum; [21]): 0% | parasitemia [%], trophozoite (P. falciparum; [21]): 0% | parasitemia [%], ring (P. falciparum; [22]): 1% | parasitemia [%], schizont (P. falciparum; [22]): 0% | parasitemia [%], trophozoite (P. falciparum; [22]): 0% | parasitemia [%], ring (P. falciparum; [23]): 10% | parasitemia [%], schizont (P. falciparum; [23]): 0% | parasitemia [%], trophozoite (P. falciparum; [23]): 0% | parasitemia [%], ring (P. falciparum; [24]): 9% | parasitemia [%], schizont (P. falciparum; [24]): 0% | parasitemia [%], trophozoite (P. falciparum; [24]): 0% | parasitemia [%], ring (P. falciparum; [25]): 2% | parasitemia [%], schizont (P. falciparum; [25]): 0% | parasitemia [%], trophozoite (P. falciparum; [25]): 0% | parasitemia [%], ring (P. falciparum; [26]): 0% | parasitemia [%], schizont (P. falciparum; [26]): 0% | parasitemia [%], trophozoite (P. falciparum; [26]): 0% | parasitemia [%], ring (P. falciparum; [27]): 0% | parasitemia [%], schizont (P. falciparum; [27]): 0% | parasitemia [%], trophozoite (P. falciparum; [27]): 0% | effect on development (P. falciparum; concentrations as low as 0.05 μM, first cycle): do not stop development through the first cycle | efficacy compared with PDMP (P. falciparum; long term culture): more effective than PDMP | inhibition of protein synthesis (protein synthesis): not inhibitory | effect on parasite in a single cycle of expansion in culture (P. chabaudi): inhibited | effect on parasite in a single cycle of expansion in culture (P. yoelii): inhibited | effect on schizont maturation and merozoite invasion into erythrocytes [1]: not to block either schizont maturation or merozoite invasion into erythrocytes | fate of schizonts greater than 40 h in the cycle [1]: mature and rupture | development of rings formed in drug after washing free of the drug ([1]; then washout): developed normally in culture | TVM morphology in rings formed in the presence of drug ([2]; 240 optical sections through 20 cells): markedly devoid of tubular connections | intraerythrocytic structures at 36 h in continued presence of drug ([2]; 36 h in the life cycle): remain as isolated spots

— patent US5863716A, “Treatment of plasmodium” (The Leland Stanford Junior University Board of Trustees, priority 1997, dated 1999)
